{"source": "patent US20040127405A1", "about": "“Methods for treating lung infections and lung tumors and for treating and preventing lung metastases” (priority 2000, published 2004)", "key": {"lungs of rats": {"test_system": "lungs of rats", "assay": "Leukocyte counts in bronchoalveolar lavage (BAL) after intratracheal instillation in rats", "assay_type": "in vivo, rat", "experimental": "In the majority of experiments, the biologically active, chemically synthesized 2-R-MALP-2 stereoisomer, corresponding to the natural compound, was used for intracheal administration. […] Both compounds were synthesized and purified as described in Example 1, and kept as 1 mg/ml stock solutions in a 33 vol. % 2-propanol, 67 vol. % water mixture. Stock solutions were diluted with pyrogen-free 0.9 wt. % sodium chloride solutions (Braun, Melsungen, Germany) shortly before application. Solvent controls consisted of corresponding mixtures without MALP-2.\nIntratracheal administration of the compounds was performed under short ether anesthesia. During this process, rats were suspended in a hanging position by a rubber band fixed to the rats' upper jaw teeth. After intubation of the trachea via the oral cavity, a total volume of 500 μl was administered. Before administration, the correct position of the tube was checked by blowing air into the lung.\nThe animals' lungs were lavaged 10 times with 5 ml of cold 0.9 wt. % NaCl solutions via a tracheal cannula. The lavage fluid was pooled, and an average of >90% of the volume was recovered. The bronchoalveolar (BAL) cells were processed for blood leukocytes as described herein.\nThe total cell numbers in the lung compartments (BAL, marginal pool, and interstitium) and in the blood were determined in a Neubauer counting chamber. Differential cell counts were assessed on cytospins. The slides were fixed in acetone for 10 min and washed with Tris-buffered saline containing 0.1 wt. % Tween 20. Cells were stained with a monoclonal antibody cocktail against lymphocytes (R73 for T cells, O×12 for B cells, and 3.2.3 for natural killer cells [all cells available from Serotec, Oxford, United Kingdom]). At least 400 cells were differentiated on each slide. In addition, neutrophils and macrophages were morphologically identified by May-Grünwald and/or Giemsa staining.\nFor flow cytometry, cells were transferred into microtiter plates (10^6 cells/well) and washed twice in PBS containing 1% BSA and 0.1% NaN3. The staining was performed with the appropriate primary antibodies described below. After the cells were washed twice, the secondary antibody was incubated for 30 min at 4° C. The cells were analyzed by using a FACScan flow cytometer (Becton Dickinson, Mountain View, Calif.), focusing on the lymphocyte cluster. CD8^+ T cells were identified as R73^+ O×8^+; CD4^+ T cells were identified as R73^+ O×8^−; memory CD4^+ T cells were identified as O×22^− W3/25^high; naive T cells were identified as O×22^+ W3/25^high; and monocytes were identified as O×22^− W3/25^low. Dendritic cells were identified as low-autofluorescence cells, non-T and non-B lymphocytes, and double positive for O×6 and O×62 (Lambrecht et al., 1999. Am. J. Respir. Cell. Mol. Biol. 20:1165-1174). All primary antibodies were monoclonal mouse anti-rat (Serotec). Unconjugated antibodies were detected by using phycoerythrin-conjugated secondary antibody (KPE; Dianova, Hamburg, Germany) and biotinylated primary antibodies with Red 670-streptavidin (Gibco, Gaithersburg, Md.). Isotype-matched antibodies served as a control.\nTo investigate whether the lipopeptide MALP-2 would be able to exert effects in the lungs, 2.5 μg of the natural stereoisomer 2R-MALP-2 was instilled into the lungs of anesthetized rats. […] Taken together, only the natural 2R stereoisomer of MALP-2 specifically affected the cell counts and distribution of subsets in the BAL.\nWith respect to FIG. 2, the data are means±the standard error of the mean (SEM; n=six per group).\nWith respect to FIG. 3, rats were sacrificed at the indicated time points after instillation of 2.5 μg of 2R-MAPL-2, and leukocytes in the bronchoalveolar lavage (BAL) were determined as described. The data are means±the SEM (n=5 per group).\nWith respect to FIG. 4, data are means±the SEM (n=8 per group). […]"}, "[1]": {"test_system": "lymphatic tissue in the bronchial mucosa", "assay": "Lymphatic tissue in the bronchial mucosa after repeated inhalation in rats", "assay_type": "in vivo, rat", "conditions": "inhalation by mask, 30 μg doses on six occasions at one-week intervals", "procedure": "They were maintained under specific-pathogen-free conditions until administration of compounds in accordance with the invention.\nWith the aid of a mask, rats were made to inhale 30 μg doses of MALP-2 on six occasions at one-week intervals."}, "MADB106 tumor cells": {"test_system": "MADB106 tumor cells", "assay": "Lung metastasis after intravenous MADB106 tumor cell inoculation in F344 rats", "conditions": "intratracheal"}, "[2]": {"conditions": "intraperitoneal injection of a few μg; cited from earlier work"}, "[3]": {"conditions": "2.5 μg intratracheal, three days, P<0.01, FIG. 2"}, "[4]": {"conditions": "three days after application, FIG. 4"}, "[5]": {"conditions": "3 μg instilled into the trachea"}}, "note": "Read-outs that look alike come from different tables or passages of the source. Ends that are not written are not given here. * marks the point of attachment. S‑(2,3-bisacyloxypropyl) = S-(2,3-bisacyloxypropyl) group on the cysteine sulfur (lipopeptide), acyl preferably palmitoyl; X1 = S‑(2,3-bispalmitoyloxy-(2R)-propyl)Cys, CCCCCCCCCCCCCCCC(=O)OC[C@H](CSC[C@H](N)C(=O)*)OC(=O)CCCCCCCCCCCCCCC", "data": [{"substance": "S-[2,3-bispalmitoyloxy-(2R)-propyl]cysteinyl-GNNDESNISFKEK (X1-GNNDESNISFKEK) [2R-MALP-2]", "values": [{"measurement": "time of maximal lymphocyte accumulation in the BAL", "setting": "lungs of rats; 2.5 μg intratracheal", "value": 72, "unit": "h"}, {"measurement": "lymphocyte numbers in the BAL", "setting": "lungs of rats; 2.5 μg intratracheal, 24 h (0 h: [0.04±0.01]×10^6), mean±SEM", "value": "0.6±0.1 ×10^6"}, {"measurement": "lymphocyte numbers in the BAL", "setting": "lungs of rats; 2.5 μg intratracheal, 48 h, mean±SEM", "value": "0.9±0.1 ×10^6"}, {"measurement": "lymphocyte numbers in the BAL (maximal accumulation)", "setting": "lungs of rats; 2.5 μg intratracheal, 72 h after instillation, mean±SEM", "value": "1.2±0.1 ×10^6"}, {"measurement": "all investigated cell types in the BAL", "setting": "lungs of rats; 2.5 μg intratracheal, after 10 days", "value": "returned to control levels"}, {"measurement": "increase of total cell number in the BAL", "setting": "lungs of rats; 2.5 μg intratracheal, six hours after treatment, FIG. 3", "value": "about 10 -fold"}, {"measurement": "total cell number in the BAL", "setting": "lungs of rats; 2.5 μg intratracheal, three days after application, vs vehicle control, FIG. 2", "value": "clearly increased"}, {"measurement": "alveolar macrophages (AM) in the BAL", "setting": "lungs of rats; [3]", "value": "significant increase"}, {"measurement": "lymphocytes in the BAL", "setting": "lungs of rats; [3]", "value": "significant increase"}, {"measurement": "neutrophils in the BAL", "setting": "lungs of rats; [3]", "value": "significant increase"}, {"measurement": "time of maximal cell count in the BAL", "setting": "lungs of rats; 2.5 μg intratracheal, FIG. 3", "value": 24, "unit": "h"}, {"measurement": "increase in B cells and monocytes in the BAL", "setting": "lungs of rats; [4]", "value": "lower, but still significant"}, {"measurement": "increase in T lymphocytes, NK cells and dendritic cells in the BAL", "setting": "lungs of rats; [4]", "value": "highest relative increase"}, {"measurement": "increase of leukocyte subpopulations in the BAL (flow cytometry)", "setting": "lungs of rats; three days after application, P<0.01 vs control vehicle, FIG. 4", "value": "significant"}]}, {"substance": "MALP-2: macrophage-activating lipopeptide MALP-2 (an S-(2,3-bisacyloxypropyl)-cysteine peptide) isolated from Mycoplasma fermentans; stereochemistry not stated where tested (C(S‑(2,3-bisacyloxypropyl))GNNDESNISFKEK; not fully specified; also: acyl groups not given here, alternative: 2,3-diacylglyceryl-serinyl)", "values": [{"measurement": "lymphatic tissue in the bronchial mucosa", "setting": "[1]", "value": "increase in the lymphatic tissue"}, {"measurement": "number of leukocytes in the respiratory tracts and the alveolar space (BAL)", "setting": "lungs of rats; 3 μg instilled into the trachea, after a few hours, lasts for a few days, FIG. 1", "value": "increase in the number of leukocytes"}, {"measurement": "adverse effect on the animals", "setting": "[5]", "value": "not detectable"}, {"measurement": "food consumption, bodyweight, activity and behavior", "setting": "[5]", "value": "not noteworthy"}, {"measurement": "food consumption, bodyweight, activity and behavior", "setting": "inhalation, 30 μg doses on six occasions at one-week intervals", "value": "clinically not noteworthy"}, {"measurement": "effects on lung colonization of tumor cells", "setting": "MADB106 tumor cells; one day after tumor cell injection, FIG. 5B", "value": "no effects"}, {"measurement": "reduction of lung metastasis compared with sham-injected animals", "setting": "MADB106 tumor cells; simultaneously with tumor cell inoculation, counted 3 wk after inoculation, P=0.0006, FIG. 5A", "value": 44, "unit": "%"}, {"measurement": "effects on lung colonization of tumor cells", "setting": "MADB106 tumor cells; three days after tumor cell injection, FIG. 5C", "value": "no effects"}, {"measurement": "leukocyte infiltration", "setting": "[2]", "value": "brought about leukocyte infiltration"}]}]}
